Measured values: patent US9963518B2, “Cyclic oligosaccharides for use in the treatment and prevention of bacterial infection” (priority 2011, dated 2018)
Read-outs that look alike come from different tables or passages of the source.

How the values were obtained:
E. coli strain E69 [1] = assay: Complement-mediated killing of bacteria in human serum; type: cell-based; conditions: for Complement-mediated killing of E69: 40% normal human serum, 1 h, 37° C.
Protocol: This assay measured the killing of bacteria by the compounds of the invention mediated by the human complement system found in serum (incubation time 1 h, RPMI 1640, 37° C.). 10^3 cells of E. coli strain E69 or CWG281 were cultured in 40% (v/v) normal human serum (NHS, 1 mL, TCS Biosciences, CR100) or deactivated human serum (DHS) in RPMI 1640 medium (Sigma Aldrich, R8758) in 1.5 mL tubes in the presence of different concentrations of am8γCD (compound 13) at 37° C. for 1 h or 4 h. DHS was generated by heating NHS at 56° C. for 30 min. For the one-hour experiment, a portion of each culture (50 μL) was then spread onto a freshly prepared LB-Agar plate; for the four-hour experiment, the culture was firstly diluted 100 times (0, 1, 10, 40 μM), 10 times (100 μM) or not diluted (300 μM and 1 mM), and then a portion of each resulting culture (50 μL) was then spread onto a freshly prepared LB-Agar plate. The plates were incubated at 37° C. for 10 h after which colonies were counted. The total colonies of each sample were calculated by colonies/plate multiplying by times of dilution. P values were calculated from a one-tailed Student's t-test.

E. coli strain E69 [2] = assay: LPS exposure assay, O9a LPS to O9a LPS-specific antibodies (FACS); type: cell-based
Protocol: The direct effect of the inhibition of K30 CPS transport on E. coli strain E69 is the appearance of defects in the capsule layer. This should in turn lead to exposure of O9a LPS at the cell surface. To test this hypothesis, the attachment of rabbit anti-O9a antibodies was quantified by flow cytometry (FACS), by using secondary fluorescent anti-rabbit antibodies. The design of the experiment is depicted schematically in FIG. 4a.
E. coli strains E69 and CWG281 were grown as described above in Example 4 and the OD600 was adjusted to 0.4. The concentrations of cyclodextrin (either am8γCD (compound 13), am6αCD (compound 3) or am7βCD (compound 10)) present in the growth media were 10 nM, 100 nM, 1 μM, 10 μM, 50 μM, 100 μM and 1 mM. 50 μL samples of each were centrifuged at 3,000×g for 10 min to remove the medium, washed with PBS and resuspended in 50 μL PBS. O9a antiserum (0.5 μL) was then added. The mixtures were incubated on ice for 1 h (to compare the effects of am6αCD, am7βCD and am8γCD on the exposure of LPS) or 2 h (for the estimation of minimum effective concentration of am8γCD required to expose LPS to antibodies), followed by centrifugation at 3,000×g for 10 min and washing with PBS. The pellets were resuspended in PBS (50 μL), to which Alexa Fluor 488 Goat Anti-Rabbit IgG secondary antibody (1 μL, Life Technologies, A11034, λex 495 nm, λem 519 nm) was added, followed by incubation for 1 h on ice. The cells were then centrifuged at 3,000×g for 10 min. The pellets were resuspended in PBS (1 mL), followed by analysis by flow cytometry (FACS) using a Becton-Dickinson FACSCalibur. 10,000 cells were analysed for each sample. Fluorescence was measured in the FL1 channel (530 nm).

WT Wza = WT Wza (Escherichia coli, UniProt Q9X4B7); assay: Single-channel electrical recording, blockers against wt-Wza in planar lipid bilayers; type: binding, E. coli; conditions: 2M KCl, 5 mM HEPES, 100 μM EDTA, 200 μM DTT, pH 7.5
Protocol: The Wt Wza transporter was tested in single-channel recording, in accordance with the procedures of Naismith (Nature 2006, 444, 226-229) for its ability to form pores in planar lipid bilayers. Sequential insertions of channels in a single orientation were used to measure the conductance of a single channel because more than one channel could insert simultaneously during the first introduction, especially when protein molecules have not properly diffused yet. Repetition of experiments helped to verify conductance of a single channel. […] After collection of 37 insertions of wt Wza channel, the current of a single channel of wt Wza in 2 M KCl buffer was determined to be 1.89±0.01 pA (n=37) on average, corresponding to 18.9±0.1 pS (n=37) in conductance.
Thirteen commercial cyclodextrins (CDs) were tested for their ability to block WT-Wza and the mutant Y110G/K375C (Table 1) including, neutral, negatively charged or positively charged cyclodextrins. Testing was carried out using electrical channel recording in high salt buffer (2M KCl, 5 mM HEPES, 100 μM EDTA, 200 μM DTT) at pH 7.5.

mutant Wza Y110G/Y373C = mutant Wza Y110G/Y373C (Escherichia coli, UniProt Q9X4B7, Y110G/Y373C); assay: Single-channel electrical recording, mutant Wza Y110G/Y373C; type: binding, E. coli; conditions: 2M KCl buffer pH 7.5, +3 mV, n = 3, read-out: Dissociation constant (Kd) with mutant Wza pore
mutant Wza ΔP106-A107 = mutant Wza ΔP106-A107 (Escherichia coli, UniProt Q9X4B7, DEL106-107); assay: Single-channel electrical recording, mutant Wza ΔP106-A107; type: binding, E. coli; conditions: n = 3, read-out: Dissociation constant (Kd) with mutant Wza pore
mutant Wza Y110G = mutant Wza Y110G (Escherichia coli, UniProt Q9X4B7, Y110G); assay: Single-channel electrical recording, mutant Wza Y110G; type: binding, E. coli; conditions: n = 3, read-out: Dissociation constant (Kd) with mutant Wza pore
Protocol: Thirteen commercial cyclodextrins (CDs) were tested for their ability to block WT-Wza and the mutant Y110G/K375C (Table 1) including, neutral, negatively charged or positively charged cyclodextrins. […]

NC[C@H]1O[C@@H]2O[C@H]3[C@H](O)[C@@H](O)[C@@H](O[C@H]4[C@H](O)[C@@H](O)[C@@H](O[C@H]5[C@H](O)[C@@H](O)[C@@H](O[C@H]6[C@H](O)[C@@H](O)[C@@H](O[C@H]7[C@H](O)[C@@H](O)[C@@H](O[C@H]8[C@H](O)[C@@H](O)[C@@H](O[C@H]9[C@H](O)[C@@H](O)[C@@H](O[C@H]1[C@H](O)[C@H]2O)O[C@@H]9CN)O[C@@H]8CN)O[C@@H]7CN)O[C@@H]6CN)O[C@@H]5CN)O[C@@H]4CN)O[C@@H]3CN [No. 12, Octacis (6-amino-6-deoxy)-γ-cyclodextrin]
Complement-mediated killing of E69 (E. coli strain E69 [1]; 15 μM): 21% | Complement-mediated killing of E69 (E. coli strain E69 [1]; 100 μM): 51% | Complement-mediated killing of E69 (E. coli strain E69 [1]; 1 mM): 84% | Growth of E69 (E. coli strain E69 [1]; 1 mM, normal human serum, incubation 4 h): completely inhibited the growth | EC50 (E. coli strain E69 [1]; Escherichia coli, E69, normal human serum, incubation 4 h, n=3, read-out: Concentration required to kill half of the bacteria (EC50)): 3.2 ± 0.5 µM | Effect on survival of E69 in the absence of NHS (E. coli strain E69 [1]; compound alone at 100 μM or 1 mM, no normal human serum): no significant effect | LPS exposure by median fluorescence intensity (E. coli strain E69 [2]; 1 μM, antiserum incubation 2 h): 5.1% | LPS exposure by percentage of labelled cells (E. coli strain E69 [2]; 1 μM, antiserum incubation 2 h): 44% | LPS exposure by percentage of labelled cells (E. coli strain E69 [2]; 50 μM, antiserum incubation 1 h): 36% | LPS exposure by median fluorescence intensity (E. coli strain E69 [2]; 50 μM, antiserum incubation 1 h, relative to CWG281 positive control): 4.9% | LPS exposure by percentage of labelled cells (E. coli strain E69 [2]; 1 mM, antiserum incubation 1 h): 96% | LPS exposure by median fluorescence intensity (E. coli strain E69 [2]; 1 mM, antiserum incubation 1 h, relative to CWG281 positive control): 20% | Interaction with WT Wza (WT Wza): not observed | Kd (mutant Wza Y110G/Y373C): 570 ± 520 µM | Kd (mutant Wza ΔP106-A107; ΔP106-A107, 300 mM KCl, 5 mM HEPES, pH 7.5, +5 mV): 0.044 ± 0.025 µM | Kd (mutant Wza ΔP106-A107; ΔP106-A107, 2M KCl buffer pH 7.5, +3 mV): 7.8 ± 5.2 µM | Kd (mutant Wza Y110G; 300 mM KCl, 5 mM HEPES, pH 7.5, +10 mV): 5.6 ± 2.4 nM | Kd (mutant Wza Y110G; 2M KCl buffer pH 7.5, +3 mV): 4700 ± 4600 nM
